Reference: patent US8092810B2, “Use of polypeptides having antimicrobial activity” (Novozymes A/S, priority 2006, dated 2012)
In brackets after ≈: the same amount, converted by molar mass. Where two headings read alike, the source gives them in different places.

Tests used:
Test in all cases: MIC broth microdilution
Format in all cases: cell-based
[1] = test system: Burkholderia cepacia ATCC 25416
[2] = test system: Staphylococcus aureus (GISA) ATCC 700699
Protocol: (§1) Briefly, the MIC was determined by microbroth dilution assay in a 96 well plate. 4-5 colonies of each bacterium tested were added to 5 ml of MHB, placed in a 35° C. shaker until the OD 600 nm reached 0.08-0.10. The inoculum was diluted 1:100 and 50 microliters were added to each well which contained 50 microliters of serial two fold dilutions of Lento, vancomycin or ciprofloxacin. Each concentration of antibiotic or Lento was tested in duplicate. The plate was placed at 35° C. overnight. MICs were determined after 24 hours incubation and defined by the well containing the lowest amount of antibiotic with no visible growth.

[3] = test system: Streptococcus pneumoniae ATCC 49619
Protocol: as §1

[4] = test system: Streptococcus pneumoniae (PSRSP) ATCC 700671
Protocol: as §1

[5] = test system: Salmonella typhimurium ATCC 13311; settings: Salmonella enterica
Protocol: as §1

[6] = test system: Eschericia coli ATCC 10536
Protocol: as §1

[7] = test system: Staphylococcus aureus subsp. aureus (MRSA & GISA) ATCC 700789
Protocol: as §1

[8] = test system: Staphylococcus aureus ATCC 29737; settings: Staphylococcus aureus, ATCC29737, 24 h
Protocol: as §1

[9] = test system: Staphylococcus aureus subsp. aureus (MRSA) ATCC 700788
Protocol: as §1

[10] = test system: Corynebacterium jeikeium ATCC 43734; settings: Corynebacterium jeikeium, ATCC43734, 24 h
Protocol: as §1

[11] = test system: Streptococcus pneumoniae (TCRSP) ATCC 700902
Protocol: as §1

[12] = test system: Shigella dysenteriae ATCC 11835; settings: Shigella dysenteriae, ATCC11835, 24 h
Protocol: as §1

[13] = test system: Staphylococcus aureus ATCC 27734
Protocol: as §1

[14] = test system: Eschericia coli ATCC 25922
Protocol: as §1

[15] = test system: Enterococcus faecium ATCC 51559; settings: ATCC51559; Enterococcus faecium ATCC 51559, Gram +; MHB, 35° C., 24 hours; read-out: MIC
Protocol: as §1

[16] = test system: Streptococcus pneumoniae ATCC 700676
Protocol: as §1

[17] = test system: Micrococcus luteus ATCC 9341
Protocol: as §1

[18] = test system: Eschericia coli ATCC 35218; settings: 24 h
Protocol: as §1

[19] = test system: Enterococcus faecalis (VRE) ATCC 51299
Protocol: as §1

[20] = test system: Staphylococus aureus (GISA) ATCC 700787
Protocol: as §1

[21] = test system: Staphylococcus epidermidis ATCC 12228; settings: Staphylococcus epidermidis, ATCC12228, 24 h
Protocol: as §1

[22] = test system: Acinetobacter sp. ATCC 49137
Protocol: as §1

[23] = test system: Staphylococcus aureus ATCC 29213; settings: Staphylococcus aureus, ATCC29213, 24 h
Protocol: as §1

[24] = test system: Klebsiella pneumoniae ATCC 10031; settings: ATCC10031, 24 h
Protocol: as §1

[25] = test system: Pseudomonas aeruginosa ATCC 27853; settings: ATCC27853, 24 h
Protocol: as §1

[26] = test system: Corynebacterium jeikeium ATCC 43216; settings: Corynebacterium jeikeium, ATCC43216, 24 h
Protocol: as §1

[27] = test system: Stenotrophomas maltophilia ATCC 13637; settings: 24 h
Protocol: as §1

[28] = test system: Staphylococcus aureus (MRSA) ATCC 33591; settings: 24 h
Protocol: as §1

[29] = test system: Bacillus cereus ATCC 4342; settings: Bacillus cereus, ATCC4342, 24 h
Protocol: as §1

For `O=C(O)c1cn(C2CC2)c2cc(N3CCNCC3)c(F)cc2c1=O` [Ciprofloxacin], the MIC ([1]; ATCC25416, Burkholderia cepacia ATCC 25416, Gram −, MHB, 35° C., 24 hours, read-out: MIC) was 0.25 µg/mL (≈ 0.754 µM), the MIC ([2]; ATCC700699, Staphylococcus aureus (GISA) ATCC 700699, Gram +, MHB, 35° C., 24 hours, read-out: MIC) was 16 µg/mL (≈ 48.3 µM) and the MIC ([3]; ATCC49619, Streptococcus pneumoniae ATCC 49619, Gram +, MHB, 35° C., 24 hours, read-out: MIC) was 0.5 µg/mL (≈ 1.51 µM). For the same compound, the MIC ([4]; ATCC700671, Streptococcus pneumoniae (PSRSP) ATCC 700671, Gram +, MHB, 35° C., 24 hours, read-out: MIC) was 1 to 2 µg/mL (≈ 3.02 to 6.04 µM), the MIC ([5]; Salmonella typhimurium ATCC 13311, Gram −, MHB, 35° C., 24 hours, read-out: MIC) was 0.0625 µg/mL (≈ 0.189 µM) and the MIC ([6]; Eschericia coli ATCC 10536, Gram −, MHB, 35° C., 24 hours, read-out: MIC) was 0.0625 µg/mL (≈ 0.189 µM). The MIC ([7]; Staphylococcus aureus subsp. aureus (MRSA & GISA) ATCC 700789, Gram +, MHB, 35° C., 24 hours, read-out: MIC) was 16 µg/mL (≈ 48.3 µM), the MIC [8] was 0.0625 to 0.25 µg/mL (≈ 0.189 to 0.754 µM) and the MIC ([9]; Staphylococcus aureus subsp. aureus (MRSA) ATCC 700788, Gram +, MHB, 35° C., 24 hours, read-out: MIC) was 8 µg/mL (≈ 24.1 µM). It also gave an MIC [10] of 0.0625 µg/mL (≈ 0.189 µM), an MIC ([11]; ATCC700902, Streptococcus pneumoniae (TCRSP) ATCC 700902, Gram +, MHB, 35° C., 24 hours, read-out: MIC) of 0.5 to 1 µg/mL (≈ 1.51 to 3.02 µM) and an MIC [12] of 0.0625 µg/mL (≈ 0.189 µM). For the same compound, the MIC ([13]; ATCC27734, Staphylococcus aureus ATCC 27734, Gram +, MHB, 35° C., 24 hours, read-out: MIC) was 8 µg/mL (≈ 24.1 µM), the MIC ([14]; Eschericia coli ATCC 25922, Gram −, MHB, 35° C., 24 hours, read-out: MIC) was 0.0625 µg/mL (≈ 0.189 µM) and the MIC [15] was > 64 µg/mL. The MIC ([16]; ATCC700676, Streptococcus pneumoniae ATCC 700676, Gram +, MHB, 35° C., 24 hours, read-out: MIC) was 1 µg/mL (≈ 3.02 µM), the MIC ([17]; ATCC9341, Micrococcus luteus ATCC 9341, Gram +, MHB, 35° C., 24 hours, read-out: MIC) was 1 µg/mL (≈ 3.02 µM) and the MIC [18] was 0.0625 µg/mL (≈ 0.189 µM). For the same compound, the MIC ([19]; Enterococcus faecalis (VRE) ATCC 51299, Gram +, MHB, 35° C., 24 hours, read-out: MIC) was 0.5 µg/mL (≈ 1.51 µM), the MIC ([20]; Staphylococus aureus (GISA) ATCC 700787, Gram +, MHB, 35° C., 24 hours, read-out: MIC) was 16 µg/mL (≈ 48.3 µM) and the MIC [21] was 0.0625 µg/mL (≈ 0.189 µM). The MIC ([22]; ATCC49137, Acinetobacter sp. ATCC 49137, Gram −, MHB, 35° C., 24 hours, read-out: MIC) was 0.0625 µg/mL (≈ 0.189 µM).
With `CN[C@H](CC(C)C)C(=O)N[C@H]1C(=O)N[C@@H](CC(N)=O)C(=O)N[C@H]2C(=O)N[C@H]3C(=O)N[C@H](C(=O)N[C@H](C(=O)O)c4cc(O)cc(O)c4-c4cc3ccc4O)[C@H](O)c3ccc(c(Cl)c3)Oc3cc2cc(c3O[C@@H]2O[C@H](CO)[C@@H](O)[C@H](O)[C@H]2O[C@H]2C[C@](C)(N)[C@H](O)[C@H](C)O2)Oc2ccc(cc2Cl)[C@H]1O` [Vancomycin, vancomycin] the MIC ([1]; Burkholderia cepacia, ATCC25416, 24 h) was > 64 µg/mL, the MIC ([2]; Staphylococcus aureus, ATCC700699, 24 h) was 8 µg/mL (≈ 5.52 µM) and the MIC ([3]; Streptococcus pneumoniae, ATCC49619, 24 h) was 0.5 to 1 µg/mL (≈ 0.345 to 0.69 µM). The MIC ([4]; Streptococcus pneumoniae, ATCC700671, 24 h) was 0.5 µg/mL (≈ 0.345 µM), the MIC ([5]; 24 h) was > 64 µg/mL and the MIC ([6]; 24 h) was > 64 µg/mL. The MIC [23] was 0.5 µg/mL (≈ 0.345 µM), the MIC [24] was > 64 µg/mL and the MIC ([7]; Staphylococcus aureus, 24 h) was 2 µg/mL (≈ 1.38 µM). The MIC [8] was 0.5 µg/mL (≈ 0.345 µM), the MIC [25] was > 64 µg/mL and the MIC ([9]; Staphylococcus aureus, 24 h) was 2 µg/mL (≈ 1.38 µM). It also gave an MIC [10] of 0.25 µg/mL (≈ 0.173 µM), an MIC [26] of 0.25 µg/mL (≈ 0.173 µM) and an MIC ([11]; Streptococcus pneumoniae, ATCC700902, 24 h) of 0.25 µg/mL (≈ 0.173 µM). For the same compound, the MIC [12] was > 64 µg/mL, the MIC ([13]; Staphylococcus aureus, ATCC27734, 24 h) was 1 µg/mL (≈ 0.69 µM) and the MIC ([14]; 24 h) was > 64 µg/mL. For the same compound, the MIC ([16]; Streptococcus pneumoniae, ATCC700676, 24 h) was 0.25 µg/mL (≈ 0.173 µM), the MIC [27] was 32 µg/mL (≈ 22.1 µM) and the MIC ([17]; Micrococcus luteus, ATCC9341, 24 h) was 0.5 µg/mL (≈ 0.345 µM). For the same compound, the MIC [18] was > 64 µg/mL, the MIC [28] was 1 µg/mL (≈ 0.69 µM) and the MIC ([19]; Enterococcus faecalis, 24 h) was 2 µg/mL (≈ 1.38 µM). The MIC ([20]; 24 h) was 8 µg/mL (≈ 5.52 µM), the MIC [21] was 1 µg/mL (≈ 0.69 µM) and the MIC [29] was 1 µg/mL (≈ 0.69 µM). The MIC ([22]; Acinetobacter, ATCC49137, 24 h) was > 64 µg/mL.
